Holding throughout (assay type): in vivo
Experiment [1] deals with ivy-leaved morning glory (Ipomoea hederacea, IPOHE). Description: Test A post-emergence, ivy-leaved morning glory. The settings on record: after 13 d. A digest of the protocol:
(§1)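 Visual damage rating (0 no damage to 100 total damage) was made 13 d after spraying. The spray was 15.625, 62.5 or 250 g/ha in 50:50 acetone/water with 0.5% Tween 20, applied to 8-day-old glasshouse plants kept at 24/16° C, 14 h light and 65% humidity.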

For experiment [2] the test system is unchanged. Description: Test A pre-emergence, ivy-leaved morning glory. The settings on record: after 13 d. A digest of the protocol:
(§2)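 Values are percent plant damage 13 d after a pre-emergence spray (15.625, 62.5 or 250 g/ha; acetone/water with 0.5% Tween 20) applied to pots one day post-sowing, under glasshouse conditions of 24/16° C. and twice-daily watering.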

For experiment [3], the system named is barnyardgrass (Echinochloa crus-galli, ECHCG). Description: Test A post-emergence, barnyardgrass. The settings on record: after 13 d. A digest of the protocol:
as §1

For another experiment, the system named is wheat. Description: Test D post-emergence, wheat seed treated with a herbicide safener. The settings on record: "Cereals" Postemergent. The procedure: (§3) A formulation containing 50 g/L of the test chemical was prepared by dissolving the active ingredient in a mixture of organic solvents and emulsifier, details of which are provided in the table. This formulation was then mixed with a small, variable amount of acetone to aid dissolution, before addition of a 0.2% v/v aqueous solution of an adjuvant, as the aqueous diluent, to form an aqueous spray solution which contains a predetermined concentration of the active ingredient.
(§4) This aqueous spray solution was then sprayed onto plants including maize and wheat that had been seed treated with a herbicide safener, after one day's cultivation (for pre-emergence) or after about 12 days' cultivation (for post-emergence). The plants were grown from seeds sown in standard soil, placed in a glasshouse under controlled conditions (at 24/18° C. or 20/16° C., day/night; 16 h light; 65% humidity). After spray application the plants were then grown in a glasshouse under the same conditions and watered twice daily. After 15 d for post-emergence and 20 DAA for pre-emergence the test was evaluated (100=total damage to plant; 0=no damage to plant).

The subject of another experiment is corn (Zea mays, ZEAMX). Nature of the experiment: Test A pre-emergence, corn. The settings on record: after 13 d. A digest of the protocol: as §2
Experiment [4] concerns barnyardgrass (Echinochloa crus-galli, ECHCG). Description: Test A pre-emergence, barnyardgrass. As to conditions: after 13 d. A digest of the protocol: as §2
The next experiment relates to maize. Description: Test D post-emergence, maize seed treated with a herbicide safener. How it is done:
as §3, §4

Where [5] appears, read: Rates 130, evaluated after 15 d.
[6] abbreviates: Rates 250, evaluated after 15 d.
The mark [7] stands for this setting: Rates 500, evaluated after 15 d.

Consider `CCn1nc([C@@H]2CN(C)C(=O)[C@H]2C(=O)Nc2cccc(F)c2F)c2cccc(F)c21` [Compound 14], for which the “damage to plant (100=total damage; 0=no damage) IPOHE” value in experiment [1] (Post-Emergence at 15.625 g/ha) is 10; in experiment [1] (Post-Emergence at 62.5 g/ha) it was 30; in experiment [1] (Post-Emergence at 250 g/ha), 50; in experiment [2] (Pre-Emergence at 15.625 g/ha), 30; in experiment [2] (Pre-Emergence at 62.5 g/ha) it was 40; in experiment [2] (Pre-Emergence at 250 g/ha), 70. Moreover, the “damage to plant (100=total damage; 0=no damage) ECHCG” value in experiment [3] (Post-Emergence at 15.625 g/ha) worked out at 80; in experiment [3] (Post-Emergence at 62.5 g/ha), 80; in experiment [3] (Post-Emergence at 250 g/ha), 80; in experiment [4] (Pre-Emergence at 15.625 g/ha), 60; in experiment [4] (Pre-Emergence at 62.5 g/ha) it was 80; in experiment [4] (Pre-Emergence at 250 g/ha) it was 90. Besides, the “TRZAW damage rating (100=total damage to plant; 0=no damage to plant)” value in the experiment with wheat (setting [5]) is given as 10; in the experiment on wheat (setting [6]) it was 70; in the experiment on wheat (setting [7]), 80. Also, the “damage to plant (100=total damage; 0=no damage) ZEAMX” value in the experiment on corn (Zea mays, ZEAMX) (Pre-Emergence at 15.625 g/ha) is given as 20; in the experiment on corn (Zea mays, ZEAMX) (Pre-Emergence at 62.5 g/ha) it was 10; with corn (Zea mays, ZEAMX) (Pre-Emergence at 250 g/ha), 70. Further, the “damage to plant (100=total damage to plant; 0=no damage to plant), ZEAMX” value is recorded as 0 in the experiment on maize (rate 130, evaluated after 15 d); 0 with maize (rate 250, evaluated after 15 d); 20 in the experiment with maize (rate 500, evaluated after 15 d).
As to `CN1CC(c2cc(C(F)(F)F)n(C)n2)C(C(=O)Nc2ccc(F)cc2C(C)(F)F)C1=O` (racemic) [Compound 26], the “damage to plant (100=total damage; 0=no damage) IPOHE” value in experiment [1] (Post-Emergence at 62.5 g/ha) came out at 20; in experiment [1] (Post-Emergence at 250 g/ha), 50; in experiment [2] (Pre-Emergence at 62.5 g/ha) it was 30; in experiment [2] (Pre-Emergence at 250 g/ha) it was 70. Further, the “damage to plant (100=total damage; 0=no damage) ECHCG” value stood at 70 in experiment [3] (Post-Emergence at 62.5 g/ha), 90 in experiment [3] (Post-Emergence at 250 g/ha), 90 in experiment [4] (Pre-Emergence at 62.5 g/ha) and 90 in experiment [4] (Pre-Emergence at 250 g/ha). The “TRZAW damage rating (100=total damage to plant; 0=no damage to plant)” value with wheat (setting [5]) worked out at 0; in the experiment with wheat (setting [6]) it was 0; in the experiment on wheat (setting [7]), 40. Also, the “damage to plant (100=total damage; 0=no damage) ZEAMX” value in the experiment with corn (Zea mays, ZEAMX) (Pre-Emergence at 62.5 g/ha) came out at 70; in the experiment on corn (Zea mays, ZEAMX) (Pre-Emergence at 250 g/ha), 90. For the same compound, the “damage to plant (100=total damage to plant; 0=no damage to plant), ZEAMX” value in the experiment on maize (rate 130, evaluated after 15 d) amounted to 0; in the experiment on maize (rate 250, evaluated after 15 d) it was 0; in the experiment on maize (rate 500, evaluated after 15 d), 10.

For the origin of these results see patent US20220281848A1, “PYRAZOLE-SUBSTITUTED PYRROLIDINONES AS HERBICIDES” (FMC Corporation, priority 2019, published 2022).
